# Tested on: TNFα release from THP-1 cells
# Assay: TNFα release from LPS-stimulated THP-1 cells
# Format: cell-based
# Details: Homo sapiens, THP-1, 18 h, LPS 10 μg/ml, 18 hours; read-out: TNFα (THP-1) IC50
# Procedure, shortened: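 THP-1 cells (10^6 cells/ml on resuspension) preincubated with compound 30 min at 37°C, 5% CO2, final DMSO ≤0.5%, then stimulated with 10 μg/ml LPS for 18 h (TNFα). Supernatants collected for TNFα analysis.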
row,IC50 [nM],Compound
1,99,OC1(CNc2nccc(-c3c(-c4ccc(F)cc4)nc4occn34)n2)CCCc2ccccc21 (stereo not shown) [CXXIII]
2,22.7,NS(=O)(=O)c1ccc(CCNc2nccc(-c3c(-c4ccc(F)cc4)nc4occn34)n2)cc1 [CXXII]
3,67.7,CC(CN(C)C)Nc1nccc(-c2c(-c3ccc(F)cc3)nc3occn23)n1 (stereo not shown) [CXXIV]
4,26.4,Fc1ccc(CCNc2nccc(-c3c(-c4ccc(F)cc4)nc4occn34)n2)cc1 [CXXI]
5,1390,NC(=O)[C@H](Cc1ccccc1)Nc1nccc(-c2c(-c3ccc(F)cc3)nc3occn23)n1 [CXXVIII]
6,249,CC(C)(Nc1nccc(-c2c(-c3ccc(F)cc3)nc3occn23)n1)C(O)c1ccccc1 (stereo not shown) [CXXVII]
7,86.1,C[C@@H](Nc1nccc(-c2c(-c3ccc(F)cc3)nc3occn23)n1)C(N)=O [CXXVI]
8,1360,Fc1ccc(-c2nc3occn3c2-c2ccnc(NCCN3CCN(Cc4ccccc4)CC3)n2)cc1 [CXXV]
9,> 10000,CS(=O)(=O)c1nccc(-c2c(-c3ccccc3)nc3sccn23)n1 [CXXXII]
10,171,OC(CNc1nccc(-c2c(-c3ccc(F)cc3)nc3occn23)n1)COc1ccccc1 (stereo not shown) [CXX]
11,15,OC1CCCCC1Nc1nccc(-c2c(-c3ccc(F)cc3)nc3occn23)n1 (stereo not shown) [CX]
12,3.19,CC(C)Nc1nccc(-c2c(-c3ccc(F)cc3)nc3occn23)n1 [C]
13,236,Fc1ccc(-c2nc3occn3c2-c2ccnc(NCCCN3CCOCC3)n2)cc1 [LIII]
14,11.8,OCC1(Nc2nccc(-c3c(-c4ccc(F)cc4)nc4occn34)n2)CCCC1 [LIV]
15,55.4,O[C@H]1CC[C@H](Nc2nccc(-c3c(-c4ccc(F)cc4)nc4occn34)n2)CC1 [LIX]
16,94.4,Fc1ccc(-c2nc3occn3c2-c2ccnc(NCCc3ccncc3)n2)cc1 [LI]
17,1190,O[C@H]1Cc2ccccc2[C@H]1Nc1nccc(-c2c(-c3ccc(F)cc3)nc3occn23)n1 [LVIII]
18,58.5,OC(CNc1nccc(-c2c(-c3ccc(F)cc3)nc3occn23)n1)c1ccccc1 (stereo not shown) [LVII]

row,IC50 [nM],Compound
1,96.9,Fc1ccc(-c2nc3occn3c2-c2ccnc(NCCCn3ccnc3)n2)cc1 [LVI]
2,25,OCCCCCCNc1nccc(-c2c(-c3ccc(F)cc3)nc3occn23)n1 [LV]
3,87.4,C[C@H](Nc1nccc(-c2c(-c3ccc(F)cc3)nc3occn23)n1)[C@H](O)c1ccccc1 [LXIII]
4,258,O=C1OCC[C@H]1Nc1nccc(-c2c(-c3ccc(F)cc3)nc3occn23)n1 [LXII]
5,13.2,CC[C@H](C)[C@@H](CO)Nc1nccc(-c2c(-c3ccc(F)cc3)nc3occn23)n1 [LXIV]
6,11.4,O[C@H]1CCCC[C@@H]1Nc1nccc(-c2c(-c3ccc(F)cc3)nc3occn23)n1 [LXIX]
7,140,C[C@@H](Nc1nccc(-c2c(-c3ccc(F)cc3)nc3occn23)n1)[C@@H](O)c1ccccc1 [LXVIII]
8,177,O=C1CCCN1CCCNc1nccc(-c2c(-c3ccc(F)cc3)nc3occn23)n1 [LXVII]
9,193,Fc1ccc(-c2nc3occn3c2-c2ccnc(NCCN3CCOCC3)n2)cc1 [LXVI]
10,26.3,CCCC[C@@H](CO)Nc1nccc(-c2c(-c3ccc(F)cc3)nc3occn23)n1 [LXV]
11,96.6,Fc1ccc(-c2nc3occn3c2-c2ccnc(NCc3ccncc3)n2)cc1 [LXXIII]
12,519,COc1ccc(CNc2nccc(-c3c(-c4ccc(F)cc4)nc4occn34)n2)cc1OC [LXXIV]
13,58.4,COc1cccc(CNc2nccc(-c3c(-c4ccc(F)cc4)nc4occn34)n2)c1OC [LXXIX]
14,318,OCCN(CCO)CCNc1nccc(-c2c(-c3ccc(F)cc3)nc3occn23)n1 [LXXVIII]
15,41.2,C[C@@H](Nc1nccc(-c2c(-c3ccc(F)cc3)nc3occn23)n1)[C@@H](O)c1ccc(O)cc1 [LXXVI]
16,26.6,Oc1cccc(C(O)CNc2nccc(-c3c(-c4ccc(F)cc4)nc4occn34)n2)c1 (stereo not shown) [LXXV]
17,346,OC[C@@H](Nc1nccc(-c2c(-c3ccc(F)cc3)nc3occn23)n1)[C@H](O)c1ccccc1 [LXXXIII]

# Biological target: T1, p38α (Homo sapiens, UniProt Q16539)
# T1 construct: p38 MAP Kinases are recombinant human full-length proteins with an amino-terminal GST fusion; GST (N); purchased Upstate (Charlottesville, Va.); host or cells: E. coli
# Assay: p38 MAP Kinase assay, ATF2 phosphorylation (ELISA)
# Format: biochemical
# Details: 40 μM ATP
# Procedure, shortened: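 Recombinant full-length GST-tagged human p38α (6 ng) pre-incubated 15 min at room temperature with compound, then reacted 30 min at 37° C with 40 μM ATP and 1.25 μM GST-ATF2 (aa 19-96) in HEPES pH 7.5/MgCl2 buffer. EDTA stop; ATF2 Thr69 phosphorylation measured by anti-phospho-ATF2 ELISA at 450 nm.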
# T1 sequence (Q16539 whole entry, the tested form may be a part): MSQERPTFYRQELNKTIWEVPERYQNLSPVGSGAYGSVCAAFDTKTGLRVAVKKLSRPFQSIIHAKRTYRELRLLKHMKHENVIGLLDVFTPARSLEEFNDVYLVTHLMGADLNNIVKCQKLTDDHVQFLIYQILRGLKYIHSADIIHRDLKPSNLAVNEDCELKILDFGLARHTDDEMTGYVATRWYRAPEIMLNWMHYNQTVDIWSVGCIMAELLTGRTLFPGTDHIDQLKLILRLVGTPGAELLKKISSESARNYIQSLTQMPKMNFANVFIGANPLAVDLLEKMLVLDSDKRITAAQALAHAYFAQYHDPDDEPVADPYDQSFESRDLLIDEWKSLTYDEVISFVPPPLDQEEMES
row,IC50 [nM],Compound
1,27.2,OC1(CNc2nccc(-c3c(-c4ccc(F)cc4)nc4occn34)n2)CCCc2ccccc21 (stereo not shown) [CXXIII]
2,5.44,NS(=O)(=O)c1ccc(CCNc2nccc(-c3c(-c4ccc(F)cc4)nc4occn34)n2)cc1 [CXXII]
3,59.6,CC(CN(C)C)Nc1nccc(-c2c(-c3ccc(F)cc3)nc3occn23)n1 (stereo not shown) [CXXIV]
4,11.2,Fc1ccc(CCNc2nccc(-c3c(-c4ccc(F)cc4)nc4occn34)n2)cc1 [CXXI]
5,71,NC(=O)[C@H](Cc1ccccc1)Nc1nccc(-c2c(-c3ccc(F)cc3)nc3occn23)n1 [CXXVIII]
6,28.5,CC(C)(Nc1nccc(-c2c(-c3ccc(F)cc3)nc3occn23)n1)C(O)c1ccccc1 (stereo not shown) [CXXVII]
7,29.4,C[C@@H](Nc1nccc(-c2c(-c3ccc(F)cc3)nc3occn23)n1)C(N)=O [CXXVI]
8,258,Fc1ccc(-c2nc3occn3c2-c2ccnc(NCCN3CCN(Cc4ccccc4)CC3)n2)cc1 [CXXV]
9,373,CS(=O)(=O)c1nccc(-c2c(-c3ccccc3)nc3sccn23)n1 [CXXXII]
10,36.5,OC(CNc1nccc(-c2c(-c3ccc(F)cc3)nc3occn23)n1)COc1ccccc1 (stereo not shown) [CXX]
11,21.8,OC1CCCCC1Nc1nccc(-c2c(-c3ccc(F)cc3)nc3occn23)n1 (stereo not shown) [CX]
12,0.893,CC(C)Nc1nccc(-c2c(-c3ccc(F)cc3)nc3occn23)n1 [C]
13,361,Fc1ccc(-c2nc3occn3c2-c2ccnc(NCCCN3CCOCC3)n2)cc1 [LIII]
14,30.2,OCC1(Nc2nccc(-c3c(-c4ccc(F)cc4)nc4occn34)n2)CCCC1 [LIV]
15,1.79,O[C@H]1CC[C@H](Nc2nccc(-c3c(-c4ccc(F)cc4)nc4occn34)n2)CC1 [LIX]
16,8.06,Fc1ccc(-c2nc3occn3c2-c2ccnc(NCCc3ccncc3)n2)cc1 [LI]
17,97.9,O[C@H]1Cc2ccccc2[C@H]1Nc1nccc(-c2c(-c3ccc(F)cc3)nc3occn23)n1 [LVIII]
18,8.96,OC(CNc1nccc(-c2c(-c3ccc(F)cc3)nc3occn23)n1)c1ccccc1 (stereo not shown) [LVII]

row,IC50 [nM],Compound
1,14,Fc1ccc(-c2nc3occn3c2-c2ccnc(NCCCn3ccnc3)n2)cc1 [LVI]
2,23.1,OCCCCCCNc1nccc(-c2c(-c3ccc(F)cc3)nc3occn23)n1 [LV]
3,38.5,C[C@H](Nc1nccc(-c2c(-c3ccc(F)cc3)nc3occn23)n1)[C@H](O)c1ccccc1 [LXIII]
4,453,O=C1OCC[C@H]1Nc1nccc(-c2c(-c3ccc(F)cc3)nc3occn23)n1 [LXII]
5,174,CC[C@H](C)[C@@H](CO)Nc1nccc(-c2c(-c3ccc(F)cc3)nc3occn23)n1 [LXIV]
6,83.3,O[C@H]1CCCC[C@@H]1Nc1nccc(-c2c(-c3ccc(F)cc3)nc3occn23)n1 [LXIX]
7,79.1,C[C@@H](Nc1nccc(-c2c(-c3ccc(F)cc3)nc3occn23)n1)[C@@H](O)c1ccccc1 [LXVIII]
8,33.4,O=C1CCCN1CCCNc1nccc(-c2c(-c3ccc(F)cc3)nc3occn23)n1 [LXVII]
9,75.9,Fc1ccc(-c2nc3occn3c2-c2ccnc(NCCN3CCOCC3)n2)cc1 [LXVI]
10,86.6,CCCC[C@@H](CO)Nc1nccc(-c2c(-c3ccc(F)cc3)nc3occn23)n1 [LXV]
11,234,Fc1ccc(-c2nc3occn3c2-c2ccnc(NCc3ccncc3)n2)cc1 [LXXIII]
12,72.8,COc1ccc(CNc2nccc(-c3c(-c4ccc(F)cc4)nc4occn34)n2)cc1OC [LXXIV]
13,342,COc1cccc(CNc2nccc(-c3c(-c4ccc(F)cc4)nc4occn34)n2)c1OC [LXXIX]
14,370,OCCN(CCO)CCNc1nccc(-c2c(-c3ccc(F)cc3)nc3occn23)n1 [LXXVIII]
15,6.72,C[C@@H](Nc1nccc(-c2c(-c3ccc(F)cc3)nc3occn23)n1)[C@@H](O)c1ccc(O)cc1 [LXXVI]
16,5.09,Oc1cccc(C(O)CNc2nccc(-c3c(-c4ccc(F)cc4)nc4occn34)n2)c1 (stereo not shown) [LXXV]
17,185,OC[C@@H](Nc1nccc(-c2c(-c3ccc(F)cc3)nc3occn23)n1)[C@H](O)c1ccccc1 [LXXXIII]

# — patent US20070270418A1, “Inhibitors of P38 and Methods of Using the Same” (priority 2003, published 2007)
